Legend:
Assay in all cases: normalised response (% of control), CellTox Green; higher = less cell death (100 = DMSO, 0 = benzethonium chloride kill control)
Settings in all cases: incubation time: 72 h
[1] = system: HCC1937
Summary of the method: (§1)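 Two readouts were taken after 72 h: CellTox Green fluorescence (485/520 nm) first, then CellTiter-Glo luminescence after 10 min at room temperature. Breast cancer cell lines had been seeded as 20 µl suspension into 384-well plates holding compound at 5 concentrations in 10-fold steps across a compound-specific 10,000-fold range. Each value is a normalised signal at a single concentration, with plates scaled to 0.1 % DMSO (100) and a positive kill control (0).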

[2] = system: HCC1599
Summary of the method: as §1

[3] = system: MCF-10A
Summary of the method: as §1

[4] = system: BT-549
Summary of the method: as §1

[5] = system: MDA-MB-436
Summary of the method: as §1

[6] = system: MDA-MB-453
Summary of the method: as §1

[7] = system: CAL-148
Summary of the method: as §1

[8] = system: DU-4475
Summary of the method: as §1

[9] = system: BT-474
Summary of the method: as §1

[10] = system: CAL-85-1
Summary of the method: as §1

[11] = system: MDA-MB-468
Summary of the method: as §1

[12] = system: HCC1143
Summary of the method: as §1

[13] = system: Hs578T
Summary of the method: as §1

[14] = system: MDA-MB-231
Summary of the method: as §1

[15] = system: CAL-120
Summary of the method: as §1

[16] = system: CAL-51
Summary of the method: as §1

[17] = system: MFM-223
Summary of the method: as §1

[18] = system: HDQ-P1
Summary of the method: as §1

Structure (SMILES)	normalised response [1] [%]	normalised response [2] [%]	normalised response [3] [%]	normalised response [4] [%]	normalised response [5] [%]	normalised response [6] [%]	normalised response [7] [%]	normalised response [8] [%]	normalised response [9] [%]	normalised response [10] [%]	normalised response [11] [%]	normalised response [12] [%]	normalised response [13] [%]	normalised response [14] [%]	normalised response [15] [%]	normalised response [16] [%]	normalised response [17] [%]	normalised response [18] [%]
C[C@@H]1C=C2C(=O)O[C@@H]3CC[C@H](C1)[C@]23O [Galiellalactone] (50000 nM)	81.2	114	102	98.7	105	107	103	108	102	46.6	135	112	122	121	102	96.6	106	92.3
CN1CCN(c2ccc3nc(-c4c(N)c5c(F)cccc5[nH]c4=O)[nH]c3c2)CC1 [Dovitinib] (1000 nM)	128	106	104	131	95.8	101	103	98.6	97.7	97.8	167	104	80.1	88.5	94	105	102	106
C#Cc1cccc(Nc2ncnc3cc(OC)c(OCCCCCCC(=O)NO)cc23)c1 [CUDC-101] (1000 nM)	113	82.2	100	142	72.7	65.4	74.4	81.3	83.7	-33	35.1	85.1	98.8	49.2	90.9	86.1	85	101
COc1ncc(-c2ccc3nccc(-c4ccnnc4)c3c2)cc1NS(=O)(=O)c1ccc(F)cc1F (1000 nM)	7.68	88.6	73.1	70.9	104	73.4	45	83.9	36.8	52.1	-111	107	35.8	64.3	102	46.1	78.7	78.8
Cn1cnc2c(F)c(Nc3ccc(Br)cc3F)c(C(=O)NOCCO)cc21 [MEK-162] (100 nM)	60.2	90.6	104	111	105	106	98.4	87.3	101	98.2	139	115	76.4	50.2	99.8	103	91.5	87.6
CC(C)C[C@H](NC(=O)[C@H](Cc1ccccc1)NC(=O)c1cnccn1)B(O)O [Bortezomib] (1000 nM)	25.3	81.6	15.3	43.7	6.1	70.9	38	76.1	59.7	-48	-84	27.3	39.2	-42.8	14.2	15.4	53.7	9.5
COc1c(C)cnc(Cn2cnc3c(Cl)nc(N)nc32)c1C [BIIB021] (1000 nM)	108	107	1.93	139	80.9	102	26.9	68.5	77.3	71.3	135	90.5	63.4	71.8	95.5	71.2	99.3	90.4
CCOc1cc2ncc(C#N)c(Nc3ccc(OCc4ccccn4)c(Cl)c3)c2cc1NC(=O)/C=C/CN(C)C [Neratinib] (100 nM)	96	107	114	105	97.8	110	100	106	78.8	93.7	75.7	115	90.3	109	106	115	103	99.5
O=c1[nH]cc(F)c(=O)[nH]1 [Fluorouracil] (1000 nM)	94.5	101	111	109	101	87.5	98.5	105	101	101	96.7	110	60.9	106	105	114	102	107
CS(=O)(=O)OCCCCOS(C)(=O)=O [Busulfan] (10000 nM)	106	82	104	108	74	103	106	102	101	103	96.5	121	94.5	108	103	113	97.1	95.2
CC(=O)O[C@H]1C(=O)[C@@]2(C)[C@H]([C@H](OC(=O)c3ccccc3)[C@]3(O)C[C@H](OC(=O)[C@H](O)[C@@H](NC(=O)c4ccccc4)c4ccccc4)C(C)=C1C3(C)C)[C@]1(OC(C)=O)CO[C@@H]1C[C@@H]2O [Paclitaxel] (100 nM)	84.6	82.7	-6.43	65.9	62.8	98.7	66.4	90.4	49.4	21.5	4.61	99.6	48.5	-43	81.6	25.6	51.4	77.4
C#Cc1cccc(Nc2ncnc3cc(OC)c(OCCCCCCC(=O)NO)cc23)c1 [CUDC-101] (10000 nM)	97.7	79.8	48.6	108	57.5	83.7	-3.26	82.4	10.6	-59	-22.4	91.9	29.1	25.8	29.1	4.75	36.9	84.6
COc1cccc2c1C(=O)c1c(O)c3c(c(O)c1C2=O)C[C@@](O)(C(C)=O)C[C@@H]3O[C@H]1C[C@H](N)[C@H](O)[C@H](C)O1 [Daunorubicin] (1000 nM)	137	138	106	145	47.9	120	75	104	101	76.2	322	100	144	127	99.2	42.6	101	101
Cn1c(=O)c(F)c(Nc2ccc(I)cc2F)c2c(=O)n(C[C@@H](O)CO)cnc21 [TAK-733] (1000 nM)	102	113	110	119	97.9	109	98.7	70.7	102	41	87.6	128	38	64.2	87.2	105	104	94.6
COC1=C2C[C@@H](C)C[C@H](OC)[C@H](O)[C@@H](C)/C=C(\C)[C@H](OC(N)=O)[C@@H](OC)/C=C\C=C(/C)C(=O)NC(=CC1=O)C2=O [Geldanamycin] (10000 nM)	-41.7	99.2	-24.5	99	80.8	82	54.8	68.2	35.9	3.38	-27.4	99.5	98	6.32	75.1	39.3	44.1	65.2
CC(=O)O[C@H]1C(=O)[C@@]2(C)[C@H]([C@H](OC(=O)c3ccccc3)[C@]3(O)C[C@H](OC(=O)[C@H](O)[C@@H](NC(=O)c4ccccc4)c4ccccc4)C(C)=C1C3(C)C)[C@]1(OC(C)=O)CO[C@@H]1C[C@@H]2O [Paclitaxel] (1000 nM)	71	86.6	1.34	56.5	49.4	92.1	86.3	95.4	43.1	41.7	-32.9	87.3	18.5	-30	82.8	38.7	58.8	81.5
C[C@@]1(C(=O)Nc2ccc(F)nc2)CCCN1c1nc(Nc2cc(C3CC3)n[nH]2)c2cccn2n1 (1000 nM)	93.8	97.6	80.4	104	90.8	104	88.8	90.6	97.7	95	52.5	68.5	110	76.2	98.1	49.5	76.7	82.1
COc1c(C)cnc(Cn2cnc3c(Cl)nc(N)nc32)c1C [BIIB021] (10000 nM)	107	113	52.8	130	106	93.5	49.2	80.3	49.4	39	96.8	126	89.7	48.7	94.9	58.2	93.4	40.1
C[C@@]1(C(=O)Nc2ccc(F)nc2)CCCN1c1nc(Nc2cc(C3CC3)n[nH]2)c2cccn2n1 (10000 nM)	104	90.1	25.8	65.3	90.4	109	59.1	90.2	95.3	67.8	49.8	-57.9	82.1	49.8	26.9	18.7	71.2	34.9
